Key:
cocklebur = experiment: Test B pre/postemergence cocklebur; format: in vivo, Xanthium strumarium
Summary of the method: (§1)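 Response is a visual 0-to-10 score relative to untreated plants, where 0 means no effect and 10 means complete control, taken twelve to sixteen days after application. Treatments went onto soil at planting and onto foliage of 1- to 4-leaf plants, using a surfactant-containing non-phytotoxic solvent.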

soybean = experiment: Test B pre/postemergence soybean; format: in vivo, Glycine max
Summary of the method: as §1

blackgrass = experiment: Test B pre/postemergence blackgrass; format: in vivo, Alopecurus myosuroides
Summary of the method: as §1

morningglory = experiment: Test B pre/postemergence morningglory; format: in vivo, Ipomoea hederacea
Summary of the method: as §1

giant foxtail = experiment: Test B pre/postemergence giant foxtail; format: in vivo, Setaria faberii
Summary of the method: as §1

velvetleaf = experiment: Test B pre/postemergence velvetleaf; format: in vivo, Abutilon theophrasti
Summary of the method: as §1

pigweed = experiment: Test B pre/postemergence pigweed; format: in vivo, Amaranthus retroflexus
Summary of the method: as §1

wheat = experiment: Test B pre/postemergence wheat; format: in vivo, Triticum aestivum
Summary of the method: as §1

surinam grass = experiment: Test B pre/postemergence surinam grass; format: in vivo, Brachiaria decumbens
Summary of the method: as §1

bedstraw = experiment: Test B pre/postemergence bedstraw; format: in vivo, Galium aparine
Summary of the method: as §1

wild oat = experiment: Test B pre/postemergence wild oat; format: in vivo, Avena fatua
Summary of the method: as §1

crabgrass = experiment: Test B pre/postemergence crabgrass; format: in vivo, Digitaria sanguinalis
Summary of the method: as §1

purple nutsedge = experiment: Test B pre/postemergence purple nutsedge; format: in vivo, Cyperus rotundus
Summary of the method: as §1

sugar beet = experiment: Test B pre/postemergence sugar beet; format: in vivo, Beta vulgaris
Summary of the method: as §1

corn = experiment: Test B pre/postemergence corn; format: in vivo, Zea mays
Summary of the method: as §1

rape = experiment: Test B pre/postemergence rape; format: in vivo, Brassica napus
Summary of the method: as §1

[1] = Preemergence, Rate 125 g/ha, scale of 0 to 10 where 0 is no effect and 10 is complete control
[2] = Preemergence, Rate 250 g/ha, scale 0 (no effect) to 10 (complete control)
[3] = Rate 500 g/ha, Preemergence, scale 0 to 10 (0 no effect, 10 complete control)
[4] = Rate 1000 g/ha, Preemergence, scale 0 to 10 (0 no effect, 10 complete control)
[5] = Postemergence, Rate 62 g/ha, scale 0 to 10, 0 is no effect, 10 is complete control
[6] = Postemergence, Rate 125 g/ha, scale of 0 to 10 where 0 is no effect and 10 is complete control
[7] = Postemergence, Rate 500 g/ha, scale 0 (no effect) to 10 (complete control)
[8] = Rate 62 g/ha, Preemergence, scale 0 to 10
[9] = Rate 250 g/ha, Postemergence, scale 0 to 10, 0 is no effect, 10 is complete control
[10] = Rate 125 g/ha, Preemergence, scale 0 to 10 (0 no effect, 10 complete control)

## COC(=O)C(c1ccccc1)n1c(=O)on(C(=O)N(c2ccccc2)C(C)C)c1=O (stereo not drawn) [Compound 723]
cocklebur; [1]
  Plant response rating, Cocklebur: 0
cocklebur; [2]
  Cocklebur plant response rating: 0
cocklebur; [3]
  Cocklebur plant response rating: 0
cocklebur; [4]
  Plant response rating, Cocklebur: 0
soybean; [1]
  Plant response rating, Soybean: 0
soybean; [2]
  Soybean plant response rating: 0
soybean; [3]
  Soybean plant response rating: 0
soybean; [4]
  Plant response rating, Soybean: 0
blackgrass; [1]
  Plant response rating, Blackgrass: 0
blackgrass; [2]
  Blackgrass plant response rating: 0
blackgrass; [3]
  Blackgrass plant response rating: 2
blackgrass; [4]
  Plant response rating, Blackgrass: 6
morningglory; [1]
  Plant response rating, Morningglory: 0
morningglory; [2]
  Morningglory plant response rating: 0
morningglory; [3]
  Morningglory plant response rating: 0
morningglory; [4]
  Plant response rating, Morningglory: 0
Giant foxtail; [1]
  Plant response rating, Giant foxtail: 7
Giant foxtail; [2]
  Giant foxtail plant response rating: 9
Giant foxtail; [3]
  Giant foxtail plant response rating: 10
Giant foxtail; [4]
  Plant response rating, Giant foxtail: 10
velvetleaf; [1]
  Plant response rating, Velvetleaf: 0
velvetleaf; [2]
  Velvetleaf plant response rating: 0
velvetleaf; [3]
  Velvetleaf plant response rating: 0
velvetleaf; [4]
  Plant response rating, Velvetleaf: 0
pigweed; [1]
  Plant response rating, Redroot pigweed: 0
pigweed; [2]
  Redroot pigweed plant response rating: 0
pigweed; [3]
  Redroot pigweed plant response rating: 0
pigweed; [4]
  Plant response rating, Redroot pigweed: 5
wheat; [1]
  Plant response rating, Wheat: 0
wheat; [2]
  Wheat plant response rating: 0
wheat; [3]
  Wheat plant response rating: 0
wheat; [4]
  Plant response rating, Wheat: 0
Surinam grass; [1]
  Plant response rating, B. signalgrass: 0
Surinam grass; [2]
  B. signalgrass plant response rating: 2
Surinam grass; [3]
  B. signalgrass plant response rating: 2
Surinam grass; [4]
  Plant response rating, B. signalgrass: 6
bedstraw; [1]
  Plant response rating, Bedstraw: 0
bedstraw; [2]
  Bedstraw plant response rating: 0
bedstraw; [3]
  Bedstraw plant response rating: 0
bedstraw; [4]
  Plant response rating, Bedstraw: 0
Wild oat; [1]
  Plant response rating, Wild oats: 0
Wild oat; [2]
  Wild oats plant response rating: 0
Wild oat; [3]
  Wild oats plant response rating: 0
Wild oat; [4]
  Plant response rating, Wild oats: 8
crabgrass; [1]
  Plant response rating, Crabgrass: 2
crabgrass; [2]
  Crabgrass plant response rating: 2
crabgrass; [3]
  Crabgrass plant response rating: 9
crabgrass; [4]
  Plant response rating, Crabgrass: 9
Purple nutsedge; [1]
  Plant response rating, Nutsedge: 0
Purple nutsedge; [2]
  Nutsedge plant response rating: 0
Purple nutsedge; [4]
  Plant response rating, Nutsedge: 0
Sugar beet; [1]
  Plant response rating, Sugarbeets: 0
Sugar beet; [2]
  Sugarbeets plant response rating: 0
Sugar beet; [3]
  Sugarbeets plant response rating: 0
Sugar beet; [4]
  Plant response rating, Sugarbeets: 0
corn; [1]
  Plant response rating, Corn: 0
corn; [2]
  Corn plant response rating: 0
corn; [3]
  Corn plant response rating: 0
corn; [4]
  Plant response rating, Corn: 0
rape; [1]
  Plant response rating, Rape: 0
rape; [2]
  Rape plant response rating: 0
rape; [3]
  Rape plant response rating: 0
rape; [4]
  Plant response rating, Rape: 2

## CC(C)N(C(=O)n1oc(=O)n(CCCCCl)c1=O)c1ccccc1 [Compound 792]
cocklebur; [5]
  Plant response rating, Cocklebur: 0
cocklebur; [6]
  Cocklebur plant response rating: 1
cocklebur; [7]
  Cocklebur plant response rating: 3
cocklebur; [2]
  Cocklebur plant response rating: 0
cocklebur; [8]
  Cocklebur plant response rating: 0
cocklebur; [9]
  Cocklebur plant response rating: 3
cocklebur; [3]
  Cocklebur plant response rating: 0
soybean; [5]
  Plant response rating, Soybean: 4
soybean; [7]
  Soybean plant response rating: 7
soybean; [8]
  Soybean plant response rating: 0
soybean; [10]
  Soybean plant response rating: 0
soybean; [9]
  Soybean plant response rating: 5
soybean; [3]
  Soybean plant response rating: 0
blackgrass; [5]
  Plant response rating, Blackgrass: 4
blackgrass; [6]
  Blackgrass plant response rating: 7
blackgrass; [7]
  Blackgrass plant response rating: 7
blackgrass; [2]
  Blackgrass plant response rating: 8
blackgrass; [8]
  Blackgrass plant response rating: 1
blackgrass; [10]
  Blackgrass plant response rating: 4
morningglory; [5]
  Plant response rating, Morningglory: 6
morningglory; [6]
  Morningglory plant response rating: 7
morningglory; [7]
  Morningglory plant response rating: 10
morningglory; [8]
  Morningglory plant response rating: 0
morningglory; [10]
  Morningglory plant response rating: 0
morningglory; [9]
  Morningglory plant response rating: 10
morningglory; [3]
  Morningglory plant response rating: 0
Giant foxtail; [5]
  Plant response rating, Giant foxtail: 2
Giant foxtail; [6]
  Giant foxtail plant response rating: 9
Giant foxtail; [7]
  Giant foxtail plant response rating: 9
Giant foxtail; [2]
  Giant foxtail plant response rating: 10
Giant foxtail; [8]
  Giant foxtail plant response rating: 10
Giant foxtail; [10]
  Giant foxtail plant response rating: 10
Giant foxtail; [9]
  Giant foxtail plant response rating: 9
Giant foxtail; [3]
  Giant foxtail plant response rating: 10
velvetleaf; [5]
  Plant response rating, Velvetleaf: 0
velvetleaf; [7]
  Velvetleaf plant response rating: 7
velvetleaf; [8]
  Velvetleaf plant response rating: 0
velvetleaf; [10]
  Velvetleaf plant response rating: 3
velvetleaf; [9]
  Velvetleaf plant response rating: 6
velvetleaf; [3]
  Velvetleaf plant response rating: 5
pigweed; [5]
  Plant response rating, Redroot pigweed: 0
pigweed; [6]
  Redroot pigweed plant response rating: 6
pigweed; [8]
  Redroot pigweed plant response rating: 7
pigweed; [10]
  Redroot pigweed plant response rating: 9
pigweed; [9]
  Redroot pigweed plant response rating: 6
wheat; [5]
  Plant response rating, Wheat: 0
wheat; [7]
  Wheat plant response rating: 3
wheat; [8]
  Wheat plant response rating: 0
wheat; [10]
  Wheat plant response rating: 0
wheat; [9]
  Wheat plant response rating: 1
Surinam grass; [5]
  Plant response rating, B. signalgrass: 0
Surinam grass; [6]
  B. signalgrass plant response rating: 0
Surinam grass; [2]
  B. signalgrass plant response rating: 9
Surinam grass; Rate 62 g/ha, Preemergence, scale 0 (no effect) to 10 (complete control)
  B. signalgrass plant response rating: 0
Surinam grass; [10]
  B. signalgrass plant response rating: 0
Surinam grass; [9]
  B. signalgrass plant response rating: 0
Surinam grass; Rate 500 g/ha, Postemergence, scale 0 to 10, 0 is no effect, 10 is complete control
  B. signalgrass plant response rating: 2
bedstraw; [6]
  Bedstraw plant response rating: 7
bedstraw; [2]
  Bedstraw plant response rating: 4
bedstraw; [8]
  Bedstraw plant response rating: 0
bedstraw; [10]
  Bedstraw plant response rating: 0
Wild oat; [5]
  Plant response rating, Wild oats: 0
Wild oat; [7]
  Wild oats plant response rating: 6
Wild oat; [8]
  Wild oats plant response rating: 0
Wild oat; [10]
  Wild oats plant response rating: 0
Wild oat; [9]
  Wild oats plant response rating: 2
crabgrass; [5]
  Plant response rating, Crabgrass: 2
crabgrass; [6]
  Crabgrass plant response rating: 9
crabgrass; [7]
  Crabgrass plant response rating: 9
crabgrass; [2]
  Crabgrass plant response rating: 10
crabgrass; [8]
  Crabgrass plant response rating: 10
crabgrass; [10]
  Crabgrass plant response rating: 10
crabgrass; [3]
  Crabgrass plant response rating: 10
Purple nutsedge; [5]
  Plant response rating, Nutsedge: 0
Purple nutsedge; [6]
  Nutsedge plant response rating: 0
Purple nutsedge; [7]
  Nutsedge plant response rating: 0
Purple nutsedge; [8]
  Nutsedge plant response rating: 0
Purple nutsedge; [10]
  Nutsedge plant response rating: 0
Purple nutsedge; [9]
  Nutsedge plant response rating: 0
Purple nutsedge; [3]
  Nutsedge plant response rating: 0
Sugar beet; [5]
  Plant response rating, Sugarbeets: 0
Sugar beet; [7]
  Sugarbeets plant response rating: 2
Sugar beet; [8]
  Sugarbeets plant response rating: 0
Sugar beet; [10]
  Sugarbeets plant response rating: 3
Sugar beet; [9]
  Sugarbeets plant response rating: 2
corn; [5]
  Plant response rating, Corn: 0
corn; [6]
  Corn plant response rating: 1
corn; [7]
  Corn plant response rating: 3
corn; [2]
  Corn plant response rating: 4
corn; [8]
  Corn plant response rating: 0
corn; [10]
  Corn plant response rating: 2
corn; [9]
  Corn plant response rating: 2
corn; [3]
  Corn plant response rating: 4
rape; [5]
  Plant response rating, Rape: 3
rape; [6]
  Rape plant response rating: 3
rape; [7]
  Rape plant response rating: 7
rape; [8]
  Rape plant response rating: 0
rape; [10]
  Rape plant response rating: 0
rape; [9]
  Rape plant response rating: 7

Source: US6737383B1, “Herbicidal oxadiazolidines” (priority 1999, dated 2004)
